In patent US8574563B2 (Bristol-Myers Squibb Company, priority 2006, dated 2013):

Test system: HCV 1b-377-neo replicon cells
Assay: HCV replicon assay, HCV 1b-377-neo replicon cells (1b FRET)
Format: cell-based, Hepatitis C virus genotype 1b
Details: Hepatitis C virus, HCV 1b-377-neo replicon cells; HCV 1b genotype; read-out: EC50 range against HCV 1b (Table 2, Range)
How it was run: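 Compounds were tested in genotype 1b subgenomic replicon cells carrying a neomycin marker, alongside a matched replicon line with an NS5A Y2065H substitution that confers resistance to a reference NS5A inhibitor.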

`C[C@H](O)C(=O)N1CCC[C@H]1c1nc(-c2ccc(-c3ccc(-c4cnc([C@@H]5CCCN5C(=O)[C@H](C)O)[nH]4)cc3)cc2)c[nH]1` [Example F27, (2S)-1-((2S)-2-(4-(4′-(2-((2S)-1-((2S)-2-hydroxypropanoyl)-2-pyrrolidinyl)-1H-imidazol-5-yl)-4-biphenylyl)-1H-imidazol-2-yl)-1-pyrrolidinyl)-1-oxo-2-propanol] and `CC(C)C[C@@H](C(=O)N1CCC[C@H]1c1nc(-c2ccc(-c3ccc(-c4cnc([C@@H]5CCCN5C(=O)[C@H](CC(C)C)N(C)C(=O)OC(C)(C)C)[nH]4)cc3)cc2)c[nH]1)N(C)C(=O)OC(C)(C)C` [Example F28, tert-butyl ((1S)-1-(((2S)-2-(5-(4′-(2-((2S)-1-((2S)-2-((tert-butoxycarbonyl)(methyl)amino)-4-methylpentanoyl)-2-pyrrolidinyl)-1H-imidazol-4-yl)-4-biphenylyl)-1H-imidazol-2-yl)-1-pyrrolidinyl)carbonyl)-3-methylbutyl)methylcarbamate] fall in the same range of EC50: 1 to 99 nM for the first, 1 to 99 nM for the second.

`COC(=O)N[C@@H](C(=O)N1CCC[C@H]1c1ncc(-c2ccc(-c3ccc(-c4cnc([C@@H]5CCCN5C(=O)C5CCOCC5)[nH]4)cc3)cc2)[nH]1)c1ccccc1` [Example 45, methyl ((1R)-2-oxo-1-phenyl-2-((2S)-2-(5-(4′-(2-((2S)-1-(tetrahydro-2H-pyran-4-ylcarbonyl)-2-pyrrolidinyl)-1H-imidazol-5-yl)-4-biphenylyl)-1H-imidazol-2-yl)-1-pyrrolidinyl)ethyl)carbamate] and `CCN(CC)[C@@H](C(=O)N1CCC[C@H]1c1ncc(-c2ccc(-c3ccc(-c4cnc([C@@H]5CCCN5C(=O)C[C@H](Cc5cccs5)NC(=O)OC)[nH]4)cc3)cc2)[nH]1)c1ccccc1` [cj-54, methyl ((1R)-3-((2S)-2-(5-(4′-(2-((2S)-1-((2R)-2-(diethylamino)-2-phenylacetyl)-2-pyrrolidinyl)-1H-imidazol-5-yl)-4-biphenylyl)-1H-imidazol-2-yl)-1-pyrrolidinyl)-3-oxo-1-(2-thienylmethyl)propyl)carbamate] fall in the same range of EC50: 0.001 to 0.999 nM for the first, 0.001 to 0.999 nM for the second.

First: COC(=O)N[C@H](C(=O)N1CCC[C@H]1c1ncc(-c2ccc(-c3ccc(-c4cnc([C@@H]5CCCN5C(=O)[C@@H](NC(=O)OC)[C@H](C)CO)[nH]4)cc3)cc2)[nH]1)C(C)C [Example M107]
Second: COC(=O)N[C@H]1CC[C@@H](C(=O)N2CCC[C@H]2c2ncc(-c3ccc(-c4ccc(-c5cnc([C@@H]6CCCN6C(=O)[C@@H](NC(=O)OC)C(C)C)[nH]5)cc4)cc3)[nH]2)C1 [cj-61, methyl ((1S)-1-(((2S)-2-(5-(4′-(2-((2S)-1-(((1R,3S)-3-((methoxycarbonyl)amino)cyclopentyl)carbonyl)-2-pyrrolidinyl)-1H-imidazol-5-yl)-4-biphenylyl)-1H-imidazol-2-yl)-1-pyrrolidinyl)carbonyl)-2-methylpropyl)carbamate]
The EC50 of the first is higher: 1 to 99 nM for the first, 0.001 to 0.999 nM for the second.

`CCN(CC)[C@@H](C(=O)N1CCC[C@H]1c1nc(-c2ccc(-c3ccc(-c4[nH]c([C@@H]5CCCN5C(=O)[C@@H](c5ccccc5)N(CC)CC)nc4C)cc3)cc2)c(C)[nH]1)c1ccccc1` [Example E5h, (1R,1′R)-2,2′-(4,4′-biphenyldiylbis((4-methyl-1H-imidazole-5,2-diyl)(2S)-2,1-pyrrolidinediyl))bis(N,N-diethyl-2-oxo-1-phenylethanamine)] and `CCN(CC)[C@@H](C(=O)N1C[C@@H](O)C[C@H]1c1ncc(-c2ccc(-c3ccc(-c4cnc([C@@H]5C[C@H](O)CN5C(=O)[C@@H](c5ccccc5)N(CC)CC)[nH]4)cc3)cc2)[nH]1)c1ccccc1` [JG-7, (3S,5S,3′S,5′S)-5,5′-(4,4′-biphenyldiylbis(1H-imidazole-5,2-diyl))bis(1-((2R)-2-(diethylamino)-2-phenylacetyl)-3-pyrrolidinol)] fall in the same range of EC50: 0.001 to 0.999 nM for the first, 0.001 to 0.999 nM for the second.

`O=C([C@H]1CCCO1)N1CSC[C@H]1c1ncc(-c2ccc(-c3ccc(-c4cnc([C@@H]5CSCN5C(=O)[C@H]5CCCO5)[nH]4)cc3)cc2)[nH]1` [Example 150, (4R,4′R)-4,4′-(4,4′-biphenyldiylbis(1H imidazole-5,2-diyl))bis(3-((2R)-tetrahydro-2-furanylcarbonyl)-1,3-thiazolidine)] and `O=C([C@H]1CCCO1)N1CCC[C@H]1c1ncc(-c2ccc(-c3ccc(-c4cnc([C@@H]5CCCN5C(=O)[C@H]5CCCO5)[nH]4)cc3)cc2)[nH]1` [Example 13, 5,5′-(4,4′-biphenyldiyl)bis(2-((2S)-1-((2R)-tetrahydro-2-furanylcarbonyl)-2-pyrrolidinyl)-1H-imidazole)] fall in the same range of EC50: 1 to 99 nM for the first, 1 to 99 nM for the second.

`CN(C)[C@@H](C(=O)N1CCC[C@H]1c1ncc(-c2ccc(-c3ccc(-c4cnc([C@@H]5CCCN5C(=O)[C@@H](c5ccccc5Cl)N(C)C)[nH]4)cc3)cc2)[nH]1)c1ccccc1` [Example 107-35, (1R)-1-(2-chloro-phenyl)-2-((2S)-2-(5-(4′-(2-((2S)-1-((2R)-2-(dimethylamino)-2-phenylacetyl)-2-pyrrolidinyl)-1H-imidazol-5-yl)-4-biphenylyl)-1H-imidazol-2-yl)-1-pyrrolidinyl)-N,N-dimethyl-2-oxoethanamine] and `COC(=O)N[C@@H](C(=O)N1CCC[C@H]1c1ncc(-c2ccc(-c3cnc(-c4cnc([C@@H]5CCCN5C(=O)[C@H](NC(=O)OC)c5ccccc5)[nH]4)cn3)cc2)[nH]1)c1ccccc1` [Example 152j-8, methyl ((1R)-2-((2S)-2-(5-(5-(4-(2-((2S)-1-((2R)-2-((methoxycarbonyl)amino)-2-phenylacetyl)-2-pyrrolidinyl)-1H-imidazol-5-yl)phenyl)-2-pyrazinyl)-1H-imidazol-2-yl)-1-pyrrolidinyl)-2-oxo-1-phenylethyl)carbamate] fall in the same range of EC50: 0.001 to 0.999 nM for the first, 0.001 to 0.999 nM for the second.

`COC(=O)N[C@H](C(=O)N1CCC[C@H]1c1nc(-c2ccc(-c3ccc(-c4c[nH]c([C@@H]5CCCN5C(=O)[C@H](NC5CCOCC5)C(C)C)n4)cc3)cc2)c[nH]1)C(C)C` [Example F52, methyl ((1S)-2-methyl-1-(((2S)-2-(4-(4′-(2-((2S)-1-(N-(tetrahydro-2H-pyran-4-yl)-D-valyl)-2-pyrrolidinyl)-1H-imidazol-4-yl)-4-biphenylyl)-1H-imidazol-2-yl)-1-pyrrolidinyl)carbonyl)propyl)carbamate] and `COC(=O)N[C@@H]1CC[C@H](C(=O)N2CCC[C@H]2c2ncc(-c3ccc(-c4ccc(-c5cnc([C@@H]6CCCN6C(=O)[C@@H](NC(=O)OC)[C@@H](C)OC)[nH]5)cc4)cc3)[nH]2)C1` [cj-86, methyl ((1R,3S)-3-(((2S)-2-(5-(4′-(2-((2S)-1-((2S)-3-methoxy-2-((methoxycarbonyl)amino)butanoyl)-2-pyrrolidinyl)-1H-imidazol-5-yl)-4-biphenylyl)-1H-imidazol-2-yl)-1-pyrrolidinyl)carbonyl)cyclopentyl)carbamate] fall in the same range of EC50: 0.001 to 0.999 nM for the first, 0.001 to 0.999 nM for the second.

`COC(=O)N[C@@H](C(=O)N1CC2(CC2)C[C@H]1c1nc(-c2ccc(-c3ccc(-c4c[nH]c([C@@H]5CC6(CC6)CN5C(=O)[C@H](NC(=O)OC)c5ccccc5)n4)cc3)cc2)c[nH]1)c1ccccc1` [Example M150, dimethyl (4,4′-biphenyldiylbis(1H-imidazole-4,2-diyl(6S)-5-azaspiro[2.4]heptane-6,5-diyl((1R)-2-oxo-1-phenyl-2,1-ethanediyl)))biscarbamate] gave an EC50 of 0.001 to 0.999 nM.
